Experimental data taken from US8378092B2, “Chlorothiophene-amides as inhibitors of coagulation factors Xa and thrombin” (Sanofi, priority 2008, dated 2013).
Where a name gives a salt, the structure may show the parent alone.

How the values were obtained:
human thrombin = human thrombin (Homo sapiens, UniProt P00734); assay: Chromogenic thrombin inhibition assay (substrate S-2238); format: biochemical; conditions: purified human thrombin, chromogenic substrate S-2238 83 μM, 37° C., mean of duplicates
[1] = molecular target: T1, human coagulation factor Xa (Homo sapiens, UniProt P00742); assay: Chromogenic F Xa inhibition assay (substrate S-2765); format: biochemical; conditions: purified human factor Xa, chromogenic substrate S-2765 62.5 μM, 37° C., mean of duplicates
T1 construct: purchased Enzyme Research Laboratories HFXa
T1 sequence (P00742 235-488 limits assumed): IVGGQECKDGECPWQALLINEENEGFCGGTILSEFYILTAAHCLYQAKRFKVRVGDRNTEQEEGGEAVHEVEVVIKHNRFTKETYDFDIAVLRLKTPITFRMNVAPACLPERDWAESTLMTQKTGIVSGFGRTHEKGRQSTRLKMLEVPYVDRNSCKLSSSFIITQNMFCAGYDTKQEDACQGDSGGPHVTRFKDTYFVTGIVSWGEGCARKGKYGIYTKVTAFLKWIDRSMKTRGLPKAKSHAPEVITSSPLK
T1 sequence (P00742 41-179 partner limits assumed): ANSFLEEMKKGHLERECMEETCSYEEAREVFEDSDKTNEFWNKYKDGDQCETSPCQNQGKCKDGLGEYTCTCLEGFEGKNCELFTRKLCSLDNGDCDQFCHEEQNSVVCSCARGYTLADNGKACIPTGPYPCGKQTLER

Row | Structure (SMILES) | IC50 (human thrombin) [nM] | IC50 [1] [nM]
1 | O=C(NC[C@H](NS(=O)(=O)c1cccc(N2CCCCC2=O)c1C(F)(F)F)C(=O)N1CCN(C2CC2)CC1)c1ccc(Cl)s1 [Example 7, 5-Chloro-thiophene-2-carboxylic acid {(S)-3-(4-cyclopropyl-piperazin-1-yl)-3-oxo-2-[3-(2-oxo-piperidin-1-yl)-2-trifluoromethyl-benzenesulfonylamino]propyl}amide trifluoroacetate] | 222 | 1.02
2 | CCOC(=O)C1CCN(C(=O)[C@H](CNC(=O)c2ccc(Cl)s2)NS(=O)(=O)c2cccc(N3CCCCC3=O)c2OC(F)F)CC1 [Example 9, 1-{(S)-3-[(5-Chloro-thiophene-2-carbonyl)-amino]-2-[2-difluoromethoxy-3-(2-oxo-piperidin-1-yl)-benzenesulfonylamino]-propionyl}-piperidine-4-carboxylic acid ethyl ester] | 10.5 | 0.52
3 | Cc1noc(C2CCN(C(=O)[C@H](CNC(=O)c3ccc(Cl)s3)NS(=O)(=O)c3cccc(N4CCCCC4=O)c3OC(F)F)CC2)n1 [Example 11, 5-Chloro-thiophene-2-carboxylic acid {(S)-2-[2-difluoromethoxy-3-(2-oxo-piperidin-1-yl)-benzenesulfonylamino]-3-[4-(3-methyl-[1,2,4]oxadiazol-5-yl)-piperidin-1-yl]-3-oxo-propyl}amide] | 381 | 1.74
4 | O=C(NC[C@H](NS(=O)(=O)c1cccc(N2CCCC2=O)c1Cl)C(=O)N1CCNCC1)c1ccc(Cl)s1 [Example 15, 5-Chloro-thiophene-2-carboxylic acid {(S)-2-[2-chloro-3-(2-oxo-pyrrolidin-1-yl)-benzenesulfonylamino]-3-oxo-3-piperazin-1-yl-propyl}-amide] | 658 | 1.32
5 | CCc1c(N2CCOCC2=O)cccc1S(=O)(=O)N[C@@H](CNC(=O)c1csc(Cl)c1)C(=O)N1CCOC[C@@H]1C [Example 2, 5-Chloro-thiophene-3-carboxylic acid [(S)-2-[2-ethyl-3-(3-oxo-morpholin-4-yl)-benzenesulfonylamino]-3-((S)-3-methyl-morpholin-4-yl)-3-oxo-propyl]-amide] | 250 | 9.8
6 | Cc1c(N2CCCC2=O)cccc1S(=O)(=O)N[C@@H](CNC(=O)c1ccc(Cl)s1)C(=O)N1CCc2sccc2C1 [Example 154, 5-Chloro-thiophene-2-carboxylic acid {(S)-3-(6,7-dihydro-4H-thieno[3,2-c]pyridin-5-yl)-2-[2-methyl-3-(2-oxo-pyrrolidin-1-yl)-benzenesulfonylamino]-3-oxo-propyl}-amide] | 3.48 | 1.92
7 | O=C(NC[C@H](NS(=O)(=O)c1cccc(N2CCCCC2=O)c1OC(F)F)C(=O)N1CCN(C2CC2)CC1)c1ccc(Cl)s1 [Example 8, 5-Chloro-thiophene-2-carboxylic acid {(S)-3-(4-cyclopropyl-piperazin-1-yl)-2-[2-difluoromethoxy-3-(2-oxo-piperidin-1-yl)-benzenesulfonylamino]-3-oxo-propyl}-amide trifluoroacetate] | 10.4 | 0.98
8 | CCc1c(N2CCOCC2=O)cccc1S(=O)(=O)N[C@@H](CNC(=O)c1ccc(Cl)s1)C(=O)N1CCC[C@@H](OC)C1 [Example 4, 5-Chloro-thiophene-2-carboxylic acid [(S)-2-[2-ethyl-3-(3-oxo-morpholin-4-yl)-benzenesulfonylamino]-3-((R)-3-methoxy-piperidin-1-yl)-3-oxo-propyl]-amide] | 61 | 2.8
9 | CCc1c(N2CCOCC2=O)cccc1S(=O)(=O)N[C@@H](CNC(=O)c1ccc(Cl)s1)C(=O)N1CCO[C@H](C)C1 [Example 3, 5-Chloro-thiophene-2-carboxylic acid [(S)-2-[2-ethyl-3-(3-oxo-morpholin-4-yl)-benzenesulfonylamino]-3-((R)-2-methyl-morpholin-4-yl)-3-oxo-propyl]-amide] | 55 | 1.48

Continued, values first:

Row | IC50 (human thrombin) [nM] | IC50 [1] [nM] | Structure (SMILES)
10 | 49 | 9.8 | O=C(NC[C@H](NS(=O)(=O)c1cccc(N2CCOCC2=O)c1Cl)C(=O)N1CCCCCC1)c1ccc(Cl)s1 [Example 5, 5-Chloro-thiophene-2-carboxylic acid {(S)-3-azepan-1-yl-2-[2-chloro-3-(3-oxo-morpholin-4-yl)-benzenesulfonylamino]-3-oxo-propyl}-amide]
11 | 40 | 0.4 | O=C(NC[C@H](NS(=O)(=O)c1cc(F)cc(N2CCCCC2=O)c1Cl)C(=O)N1CCN(CC(F)(F)F)CC1)c1ccc(Cl)s1 [Example 183, 5-Chloro-thiophene-2-carboxylic acid {(S)-2-[2-chloro-5-fluoro-3-(2-oxo-piperidin-1-yl)-benzenesulfonylamino]-3-oxo-3-[4-(2,2,2-trifluoro-ethyl)-piperazin-1-yl]-propyl}-amide]
12 | 19 | 1.44 | CN1CCN(C(=O)[C@H](CNC(=O)c2ccc(Cl)s2)NS(=O)(=O)c2cc(F)cc(N3CCCC3)c2Cl)CC1 [Example 13, 5-Chloro-thiophene-2-carboxylic acid [(S)-2-(2-chloro-5-fluoro-3-pyrrolidin-1-yl-benzenesulfonylamino)-3-(4-methyl-piperazin-1-yl)-3-oxo-propyl]-amide trifluoro acetate]
13 | 27 | 1.31 | Cc1c(N2CCCC2=O)cc(F)cc1S(=O)(=O)N[C@@H](CNC(=O)c1ccc(Cl)s1)C(=O)N1CCN(C)CC1 [Example 202, 5-Chloro-thiophene-2-carboxylic acid [(S)-2-[5-fluoro-2-methyl-3-(2-oxo-pyrrolidin-1-yl)-benzenesulfonylamino]-3-(4-methyl-piperazin-1-yl)-3-oxo-propyl]-amide]
14 | 28 | 1.81 | CN1CCN(C(=O)[C@H](CNC(=O)c2ccc(Cl)s2)NS(=O)(=O)c2cccc(N3CCCC3=O)c2C(F)F)CC1 [Example 17, 5-Chloro-thiophene-2-carboxylic acid [(S)-2-[2-difluoromethyl-3-(2-oxo-pyrrolidin-1-yl)-benzenesulfonylamino]-3-(4-methyl-piperazin-1-yl)-3-oxo-propyl]-amide trifluoro acetate]
15 | 5.64 | 0.88 | COc1c(N2CCOCC2=O)cc(F)cc1S(=O)(=O)N[C@@H](CNC(=O)c1ccc(Cl)s1)C(=O)N1CCCCCC1 [Example 6, 5-Chloro-thiophene-2-carboxylic acid {(S)-3-azepan-1-yl-2-[5-fluoro-2-methoxy-3-(3-oxo-morpholin-4-yl)-benzenesulfonylamino]-3-oxo-propyl}-amide]
16 | 54 | 1.3 | COCCN1CCN(C(=O)[C@H](CNC(=O)c2ccc(Cl)s2)NS(=O)(=O)c2cc(F)cc(N3CCCC3=O)c2C)CC1 [Example 16, 5-Chloro-thiophene-2-carboxylic acid {(S)-2-[5-fluoro-2-methyl-3-(2-oxo-pyrrolidin-1-yl)-benzenesulfonylamino]-3-[4-(2-methoxy-ethyl)-piperazin-1-yl]-3-oxo-propyl}-amide trifluoro acetate]
